This is an account of results in patent publication US12391698B2, “Substituted piperidines and piperazines and methods for the treatment of CNS disorders” (SUVEN LIFE SCIENCES LIMITED, priority 2022, dated 2025).

Series [1] has as its target T1, cloned human 5-HT1A receptor (Homo sapiens, UniProt P08908).
T1 construct: expressed in transfected cells; host or cells: HEK293-EBNA
T1 sequence (P08908 1-422): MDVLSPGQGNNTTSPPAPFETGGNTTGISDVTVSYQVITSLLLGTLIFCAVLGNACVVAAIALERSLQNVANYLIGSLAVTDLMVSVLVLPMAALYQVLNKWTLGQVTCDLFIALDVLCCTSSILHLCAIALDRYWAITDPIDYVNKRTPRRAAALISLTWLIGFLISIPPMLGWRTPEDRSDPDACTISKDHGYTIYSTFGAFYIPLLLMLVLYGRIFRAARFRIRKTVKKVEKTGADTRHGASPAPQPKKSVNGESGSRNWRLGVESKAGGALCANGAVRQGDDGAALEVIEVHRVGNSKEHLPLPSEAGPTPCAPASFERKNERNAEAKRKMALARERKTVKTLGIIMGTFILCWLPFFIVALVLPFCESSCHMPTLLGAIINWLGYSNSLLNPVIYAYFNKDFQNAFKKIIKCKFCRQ
The experiment in a line: Determination of Ki at 5-HT1A receptor (radioligand binding, [3H]-8-Hydroxy DPAT). Conditions: HEK293-EBNA recombinant cells; [3H]-8-Hydroxy DPAT 0.8 nM; read-out: Ki h5-HT1A. The procedure:
(§1) Compounds were tested according to the following procedure.
• Receptor source: Recombinant mammalian cells (HEK293-EBNA) • Radioligand: [^3H]-8-Hydroxy DPAT (200 Ci/mmol) • Final ligand concentration: 0.8 nM • Non-specific determinant: 0.1 mM U92016A • Reference compound: U92016A • Positive control: U92016A Incubation Conditions:
Reactions were carried out in buffer with pH 7.4 containing 50 mM Tris-HCl, 0.5 mM EDTA, 10 mM MgSO4, 0.1% Ascorbic acid for 2 h at r.t. The reaction was terminated by rapid vacuum filtration onto the glass fiber filters. Radioactivity trapped onto the filters was determined and compared to the control values in order to ascertain any interactions of the test compound(s) with cloned human 5-HT1A receptor binding site.

Series [2] concerns the target T2, cloned human 5-HT2A receptor (Homo sapiens, UniProt P28223).
T2 construct: expressed in transfected cells; host or cells: CHO-K1
The experiment in a line: Determination of Ki at 5-HT2A receptor (radioligand binding, [3H]-Ketanserine). Conditions: CHO-K1 recombinant cells; [3H]-Ketanserine 1.25 nM; read-out: Ki h5-HT2A. As to the method: as §1
• Receptor source: Recombinant mammalian cells (CHO-K1) • Radioligand: [^3H]-Ketanserine (41.9 Ci/mmol) • Final ligand concentration: 1.25 nM • Non-specific determinant: 0.1 mM 1-Napthyl piperazine (1-NP) • Reference compound: 1-Napthyl piperazine (1-NP) • Positive control: 1-Napthyl piperazine (1-NP) Incubation Conditions:
Reactions were carried out in buffer with pH 7.4 containing 50 mM Tris-HCl, 4 mM CaCl2), 0.1% Ascorbic acid for 1 h at r.t. The reaction was terminated by rapid vacuum filtration onto the glass fiber filters. Radioactivity trapped onto the filters was determined and compared to the control values in order to ascertain any interactions of the test compound(s) with cloned human 5-HT2A receptor binding site.

For series [3], the target named is cloned human SERT receptor (Homo sapiens, UniProt P31645). Put plainly: Determination of Ki at SERT receptor (SPA binding, [3H]-Citalopram). Conditions: HEK293 recombinant cells, [3H]-Citalopram 2 nM, read-out: Ki hSERT. The procedure:
as §1
• Receptor source: Recombinant mammalian cells (HEK293) • Radioligand: [^3H]-Citalopram (80.8 Ci/mmol) • Final ligand concentration: 2 nM • Non-specific determinant: 0.1 mM Venlafaxine • Reference compound: Venlafaxine • Positive control: Venlafaxine Incubation Conditions:
Reactions were carried out in buffer with pH 7.4 containing 50 mM Tris-HCl, 150 mM NaCl, 5 mM KCl and scintillation proximity assay (SPA) beads (0.1 mg/well) for 3 h at r.t. Radioactivity proximal to SPA beads was determined by scintillation proximity assay and compared to the control values in order to ascertain any interactions of the test compound(s) with cloned human SERT receptor binding site.
Reference: Journal of Pharmacology and Experimental Therapeutics, 1987, 242 (1), 364-371.

Series [4] deals with T3, hD2S (cloned human dopamine D2S receptor) (Homo sapiens, UniProt P14416).
T3 construct: expressed in transfected cells; host or cells: CHO-K1
Put plainly: Determination of Ki at D2S receptor (radioligand binding, [3H]-Raclopride). Particulars: CHO-K1 recombinant cells; [3H]-Raclopride 4 nM; read-out: Ki hD2S. The procedure: as §1
• Receptor source: Recombinant mammalian cells (CHO-K1) • Radioligand: [^3H]-Raclopride (80.8 Ci/mmol) • Final ligand concentration: 4 nM • Non-specific determinant: 0.1 mM Haloperidol • Reference compound: Haloperidol • Positive control: Haloperidol Incubation Conditions:
Reactions were carried out in buffer with pH 7.4 containing 50 mM Tris-HCl, 120 mM NaCl, 5 mM KCl, 5 mM MgCl2, 1 mM EDTA for 2 h at r.t. The reaction was terminated by rapid vacuum filtration onto the glass fiber filters. Radioactivity trapped onto the filters was determined and compared to the control values in order to ascertain any interactions of the test compound(s) with cloned human dopamine […] receptor binding site.

Series [5] addresses T4, recombinant rat 5-HT7 receptor (Rattus norvegicus, UniProt P32305).
T4 construct: expressed in transfected cells
Put plainly: Determination of Kb at 5-HT7 receptor, pCRE-Luc reporter gene assay in CHO cells. The series is classed as cell-based. The procedure:
A stable CHO cell line expressing recombinant rat 5-HT7 receptor and pCRE-Luc reporter system was used for cell-based assay. The assay offers a non-radioactive based approach to determine binding of a compound to GPCRs. In this specific assay, the level of intracellular cAMP which is modulated by activation or inhibition of the receptor is measured. The recombinant cells harbor luciferase reporter gene under the control of cAMP response element.
The above cells were grown in 96 well clear bottom white plates in Hams F12 medium containing 10% fetal bovine serum (FBS). Prior to the addition of compounds or standard agonist, cells were serum starved overnight. Increasing concentrations of test compound were added along with 1 μM of serotonin in Opti-MEM medium to the cells. The incubation was continued at 37° C. in CO2 incubator for 4 hours. Medium was removed and cells were washed with phosphate buffered saline. The cells were lysed and luciferase activity was measured in a Luminometer. Luminescence units were plotted against the compound concentrations using GraphPad Prism software. EC50 values of the compounds were defined as the concentration required in reducing the luciferase activity by 50%. The Kb values were calculated by feeding the concentration of agonist used in the assay and its EC50 value in the same software.
(In general: A reporter such as luciferase makes a cellular process visible.)

For series [6], the target named is T4, recombinant rat 5-HT7 receptor. Described as above. The series is classed as cell-based. This is another data set of the same source.
A short description of series [7]: Rodent pharmacokinetic study. The series is classed as in vivo, Male Wistar rats. Conditions: rat, plasma, mean ± S.D, n = 3. The procedure:
Male Wistar rats (260±50 g) were used as experimental animals. Animals were housed individually in polypropylene cage. Two days prior to study, male Wistar rats were anesthetized with isoflurane for surgical placement of jugular vein catheter. Rats were randomly divided for oral (3 mg/kg) and intravenous (1 mg/kg) dosing (n=3/group) and fasted overnight before oral dosing (p.o.). However, food and water were provided ad libitum to the rats allocated for intravenous dosing.
At pre-determined time points, blood samples were collected through jugular vein and replenished with an equivalent volume of normal saline. Collected blood was transferred into a labeled eppendorf tube containing 10 μL of heparin as an anticoagulant. Typically blood samples were collected at 0.08, 0.25, 0.5, 1, 2, 4, 6, 8, and 24 h post dose. Blood samples were centrifuged at 4000 rpm for 10 min. Plasma was separated and stored frozen at −80° C. until analysis. The concentrations of the test compounds were quantified in plasma by qualified LC-MS/MS method using suitable extraction technique. The test compounds were quantified in the calibration range around 1-1000 ng/mL in plasma. Study samples were analyzed using calibration samples in the batch and quality control samples spread across the batch.
Pharmacokinetic parameters Cmax, AUCt, t1/2. Clearance and Bioavailability (F) were calculated using standard non-compartmental model by using Phoenix WinNonlin 6.0.4 version software package.

A short description of series [8]: Rodent brain penetration study. Type of series: in vivo. Particulars: rat, brain/plasma, po, fed male Wistar rats, 3 mg/kg p.o., mean ± S.D, n = 3, read-out: Rat Brain Penetration (Cbrain/Cplasma) at 3 mg/kg, p.o. @ 1 h. The procedure: Male Wistar rats (260±40 g) were used as experimental animals. Three animals were housed in each cage. Animals were given water and food ad libitum throughout the experiment and maintained on a 12 h light/dark cycle.
Brain penetration was determined in discrete manner in rats. One day prior to dosing, male Wistar rats were acclimatized and randomly grouped according to their body weight. At each time point (0.50, 1 and 2 h), n=3 animals were used.
The test compounds were suitably preformulated and administered orally at (free base equivalent) 3 mg/kg. Blood samples were removed via cardiac puncture under isoflurane anesthesia. The animals were sacrificed to collect brain tissue. Plasma was separated and brain samples were homogenized. Plasma and brain homogenates were stored frozen at −20° C. until analysis. The concentrations of the test compounds in plasma and brain were determined using LC-MS/MS method.
The test compounds were quantified in plasma and brain homogenate by qualified LC-MS/MS method using suitable extraction technique in the calibration range of 1-500 ng/mL. Study samples were analyzed using calibration samples in the batch and quality control samples spread across the batch. Extent of brain-plasma ratio (Cbrain/Cplasma) was calculated.

In a further series the test system is Male Sprague Dawley rats. The experiment in a line: Amphetamine-induced hyperlocomotion. Particulars: 3 mg/kg, p.o., dosed 30 min prior to trial. Type of series: in vivo, rat. As to the method: Male Sprague Dawley rats of 230-280 g body weight were used. Rats were weighed and randomized according to their body weights. Following day, the rats were brought to the laboratory 1 h prior to test. In the morning session, rats were habituated to open field arena for 15 min. Test compound/vehicle and amphetamine/vehicle were administered 30 min prior to the trial. After the post-dose interval, rats were placed in the open field and locomotion was recorded for a period of 15 min. Amphetamine-induced hyperlocomotion models positive symptoms of schizophrenia.

Another series concerns Rats. The experiment in a line: Tardive dyskinesia test (vacuous chewing movements and tongue protrusions). Particulars: 38 mg/kg, i.m. single dose, scored weekly for 4 weeks. Type of series: in vivo, rat. The procedure:
Rats weighing 200-230 g were acclimatized to the plexiglass observation cages (30×20×30 cm) equipped with mirrors for 5 min. After acclimatization, basal vacuous chewing movements (VCMs) and tongue protrusions (TPs) of the rats were quantified manually for 5 min. Rats were randomized based on the basal readings. Rats received a single dose of sesame oil (vehicle treatment) or haloperidol decanoate (38 mg/kg, i.m. positive control). Example-2, 10 mg/kg, p.o. ([…]) was administered for 4 weeks. VCMs and TPs were scored on weekly basis for 4 weeks. Tardive dyskinesia is a side effect of antipsychotic medications.

Another series deals with dopamine receptor. The experiment in a line: Reserpine-induced dihydroxyphenylalanine (DOPA) accumulation assay in rat striatum. Type of series: in vivo. Conditions: apomorphine 0.1 mg/kg, s.c., rat, reserpine 5.0 mg/kg. As to the method:
Reserpine (5.0 mg/kg, s.c.) was injected, after which rats were fasted for 18 h before sacrifice. […] Each rat was sacrificed and the striatum was dissected out of the whole brain on ice. Each striatum was weighed and homogenized individually in buffer containing 0.01 N hydrochloric acid and 0.2 mg/ml L-cysteine. Supernatants were subjected for quantification of DOPA using HPLC coupled to electrochemical detector.

[9] abbreviates: intravenous (bolus) 1 mg/kg, male Wistar rats.
Where [10] appears, read: oral (gavage) 3 mg/kg, fasted male Wistar rats.

Counter-ions that a name gives are not always drawn. Like-named read-outs stand apart in the source and are kept apart here. A value given as a limit tells only on which side of the number the result lay.

For orientation: Ki means the dissociation constant of the complex between target and ligand, obtained from inhibition or displacement. As a reminder, the AUC(0-t) is the area under the concentration-time curve up to a stated or last time point. A low value points to less exposure. As usually defined, the clearance is the volume of plasma or blood freed of the substance per unit of time. Low readings indicate a low capacity for elimination, high ones a high capacity for elimination. The half-life is how long it takes for the measured level to halve. High values mean slow decline, low ones rapid decline. Usually bioavailability stands for dose-corrected exposure relative to a reference, in per cent. As usually defined, the Cmax is the peak of the concentration-time curve.

T4 sequence (P32305 whole entry): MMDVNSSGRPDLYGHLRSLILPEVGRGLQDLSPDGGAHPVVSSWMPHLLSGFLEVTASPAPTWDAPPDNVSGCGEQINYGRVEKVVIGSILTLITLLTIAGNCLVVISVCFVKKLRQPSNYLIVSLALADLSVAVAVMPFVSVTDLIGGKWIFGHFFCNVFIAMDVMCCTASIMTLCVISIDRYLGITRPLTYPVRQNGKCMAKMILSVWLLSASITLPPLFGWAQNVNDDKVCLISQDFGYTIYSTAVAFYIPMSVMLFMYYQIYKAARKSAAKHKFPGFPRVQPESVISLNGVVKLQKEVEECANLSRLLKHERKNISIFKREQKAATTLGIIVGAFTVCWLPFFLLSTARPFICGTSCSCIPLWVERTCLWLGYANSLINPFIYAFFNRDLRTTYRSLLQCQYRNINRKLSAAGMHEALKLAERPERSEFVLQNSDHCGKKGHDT
Chain of cloned human SERT receptor (P31645 whole entry): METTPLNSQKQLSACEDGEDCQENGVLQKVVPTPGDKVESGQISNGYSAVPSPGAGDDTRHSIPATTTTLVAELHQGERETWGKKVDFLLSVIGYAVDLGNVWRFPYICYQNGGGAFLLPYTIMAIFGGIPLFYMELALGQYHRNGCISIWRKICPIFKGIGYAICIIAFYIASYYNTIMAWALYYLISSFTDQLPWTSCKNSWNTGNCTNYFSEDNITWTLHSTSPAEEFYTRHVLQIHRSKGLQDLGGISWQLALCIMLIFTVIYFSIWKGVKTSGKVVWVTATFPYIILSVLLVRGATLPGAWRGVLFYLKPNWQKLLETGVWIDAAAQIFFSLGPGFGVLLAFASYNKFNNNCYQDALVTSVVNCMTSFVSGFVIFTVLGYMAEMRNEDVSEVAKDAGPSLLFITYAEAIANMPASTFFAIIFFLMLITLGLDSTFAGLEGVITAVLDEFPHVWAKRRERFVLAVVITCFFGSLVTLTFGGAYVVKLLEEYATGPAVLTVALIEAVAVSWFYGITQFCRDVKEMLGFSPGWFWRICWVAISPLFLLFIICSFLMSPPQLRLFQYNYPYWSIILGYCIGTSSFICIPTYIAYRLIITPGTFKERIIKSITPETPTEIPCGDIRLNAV
T3 sequence (P14416 1-414 isoform P14416-2): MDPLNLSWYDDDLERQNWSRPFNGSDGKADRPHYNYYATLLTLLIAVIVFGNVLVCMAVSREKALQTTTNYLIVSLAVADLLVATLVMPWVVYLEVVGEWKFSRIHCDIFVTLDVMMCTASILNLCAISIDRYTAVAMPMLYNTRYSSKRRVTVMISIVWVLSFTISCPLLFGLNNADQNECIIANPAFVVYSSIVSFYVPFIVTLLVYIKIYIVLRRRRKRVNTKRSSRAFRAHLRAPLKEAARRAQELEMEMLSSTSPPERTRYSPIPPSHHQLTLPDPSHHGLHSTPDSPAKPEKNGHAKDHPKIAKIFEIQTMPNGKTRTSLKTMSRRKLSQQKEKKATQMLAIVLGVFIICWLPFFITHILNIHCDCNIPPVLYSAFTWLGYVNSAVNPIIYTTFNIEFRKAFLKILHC
T2 sequence (P28223 whole entry): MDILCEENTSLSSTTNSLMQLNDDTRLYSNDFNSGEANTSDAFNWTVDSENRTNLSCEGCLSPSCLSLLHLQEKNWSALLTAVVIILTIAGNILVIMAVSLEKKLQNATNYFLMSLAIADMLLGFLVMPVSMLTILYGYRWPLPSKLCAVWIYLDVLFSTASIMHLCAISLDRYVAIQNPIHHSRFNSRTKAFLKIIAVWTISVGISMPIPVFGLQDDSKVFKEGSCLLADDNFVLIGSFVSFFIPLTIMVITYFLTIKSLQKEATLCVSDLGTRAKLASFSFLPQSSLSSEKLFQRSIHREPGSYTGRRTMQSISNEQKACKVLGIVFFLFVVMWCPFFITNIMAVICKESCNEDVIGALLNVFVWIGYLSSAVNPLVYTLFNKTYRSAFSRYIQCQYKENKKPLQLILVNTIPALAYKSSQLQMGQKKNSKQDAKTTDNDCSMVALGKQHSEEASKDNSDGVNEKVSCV

In the case of `O=C1C[C@@H]2COCCN2C(=O)N1CCCCN1CCN(c2nsc3ccccc23)CC1` [Example 18, 7-[4-(4-Benzo[d]isothiazol-3-yl-piperazin-1-yl)-butyl]-tetrahydro-pyrimido[6,1-c][1,4]oxazine-6,8-dione oxalate], the Ki in [1] came to 0.8 nM; in [2], 4.2 nM; in [3], 1.74 µM; in series [4], 6.5 nM. In addition, in series [5] (pCRE-Luc reporter gene assay), the “antagonistic activity at rat recombinant 5-HT7 receptor” value is reported as “antagonistic activity”. In series [5] (rat receptor, with 1 μM serotonin, luciferase readout, read-out: Kb at 5-HT7 receptor), the Kb amounted to 1 nM. For the same molecule, in series [6], the “agonist activity at rat recombinant 5-HT7 receptor” value is on record as “no detectable agonist activity”.

As for `O=C1C[C@H]2CCCN2C(=O)N1C[C@H]1CCCC[C@H]1CN1CCN(c2nsc3ccccc23)CC1` [Example 27, 2-[2-(4-Benzo[d]isothiazol-3-yl-piperazin-1-ylmethyl)-cyclohexylmethyl]-tetrahydro-pyrrolo[1,2-c]pyrimidine-1,3-dione oxalate], the Ki is 4.7 nM in series [1], 2 nM in series [2], above 10 µM in series [3] (cells printed in μM) and 0.2 nM in series [4]. Moreover, the exposure AUC(0-t) in series [7] (setting [9]) was determined as 360 ± 10 ng·h/mL; in series [7] (setting [10]), 173 ± 92 ng·h/mL. Further, the clearance in series [7] (setting [9]) amounted to 45 ± 1.3 mL/min/kg. The half-life in series [7] (setting [9]) was 2.4 ± 0.4 h; in [7] (setting [10]) it was 1.8 ± 0.1 h. Moreover, the bioavailability in series [7] (oral 3 mg/kg vs intravenous 1 mg/kg, male Wistar rats, read-out: F (Bioavailability)) turned out to be 16 ± 8%. In addition, in [7] (setting [10]), the Cmax was determined as 186 ± 109 ng/mL. Moreover, the Kp at 1 h in series [8] was 1.21 ± 0.13. Also, the “Inference, amphetamine antagonism (hyperlocomotion)” value with Male Sprague Dawley rats is “Active”.

Consider `CCCCCCCCCC(=O)OC1(c2ccc(Cl)cc2)CCN(CCCC(=O)c2ccc(F)cc2)CC1` [Haloperidol decanoate, reference compound], for which the “Inference, tardive dyskinesia test (VCMs and TPs vs vehicle group)” value with Rats is “Increased number of VCMs and TPs”.

As for `CN1CCc2cccc3c2[C@H]1Cc1ccc(O)c(O)c1-3` [apomorphine, reference compound], in the series on dopamine receptor, the “change in reserpine-induced DOPA accumulation in striatum” value is reported as “significant decrease”.
